From ChEMBL document CHEMBL1201862, “PubChem BioAssay data set” (2004)
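Protocol summary: plate cells (96-well), add compound at 5 concentrations, incubate 48 h, interpolate endpoints linearly. GI50 = concentration required for 50% inhibition of growth.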 Active and inactive are the calls of the source. Rule as the data show it: active = GI50 up to about 1.1 µM and inactive = higher.

Tests used:
Test in all cases: NCI tumour cell line growth inhibition, 48 h
DMS-114 = tested on: DMS-114
HOP-18 = tested on: HOP-18
DLD-1 = tested on: DLD-1
XF498 = tested on: XF498
DMS-273 = tested on: DMS-273
KM-20L2 = tested on: KM-20L2
LXFL 529 = tested on: LXFL 529
SNB-78 = tested on: SNB-78
RXF 631 = tested on: RXF 631

`C=Cc1cc(OC)c2c(c1)c(=O)oc1c2cc(OC)c2c(O)ccc(C3OC(C)C(O)C(C)(O)C3O)c21` (configuration not stated) was tested, and the GI50 (DMS-114) was 0.0225 µM (active), the GI50 (HOP-18) was 0.053 µM (active) and the GI50 (DLD-1) was 0.0671 µM (active). For the same compound, the GI50 (XF498) was 0.0252 µM (active), the GI50 (DMS-273) was 0.0545 µM (active) and the GI50 (KM-20L2) was 0.041 µM (active).
For `Cc1cc(NC(=O)NC(=O)c2ccccc2NC(=O)CN)ccc1Oc1ncc(Br)cn1`, the GI50 (DMS-114) was 0.191 µM (active), the GI50 (LXFL 529) was 1.73 µM (inactive) and the GI50 (DLD-1) was 1.4 µM (inactive). The GI50 (XF498) was 13.9 µM (inactive), the GI50 (DMS-273) was 0.313 µM (active) and the GI50 (KM-20L2) was 0.676 µM (active).
For `COc1cccc(-c2cc(C(=O)Nc3ccc(Cl)cc3)nc(N)n2)c1`, the GI50 (DMS-114) was 30.6 µM (inactive), the GI50 (SNB-78) was > 100 µM (inactive) and the GI50 (LXFL 529) was 52.7 µM (inactive). For the same compound, the GI50 (HOP-18) was > 100 µM (inactive), the GI50 (DLD-1) was 69.5 µM (inactive) and the GI50 (XF498) was 93.8 µM (inactive). The GI50 (DMS-273) was 85.7 µM (inactive) and the GI50 (KM-20L2) was 61.4 µM (inactive).
For `N/N=C(\CC1OC(=O)c2ccccc21)c1ccco1` (configuration not stated), the GI50 (DMS-114) was > 100 µM (inactive), the GI50 (LXFL 529) was > 100 µM (inactive) and the GI50 (HOP-18) was < 0.01 µM (active). For the same compound, the GI50 (DLD-1) was > 100 µM (inactive), the GI50 (DMS-273) was > 100 µM (inactive) and the GI50 (KM-20L2) was > 100 µM (inactive).
In the case of `Nn1c(S)nnc1NNC(=O)C(=O)Nc1cc(Cl)c(Cl)cc1Cl`, the GI50 (DMS-114) is reported as > 100 µM (inactive), the GI50 (SNB-78) is reported as > 100 µM (inactive) and the GI50 (LXFL 529) is reported as > 100 µM (inactive). The GI50 (HOP-18) was 71.1 µM (inactive), the GI50 (DLD-1) was > 100 µM (inactive) and the GI50 (XF498) was 90.4 µM (inactive). The GI50 (KM-20L2) was > 100 µM (inactive).
In the case of `CCNC(=O)C#CC(=O)NCC`, the GI50 (DMS-114) is reported as > 72.3 µM (inactive), the GI50 (SNB-78) is reported as > 10 µM (inactive) and the GI50 (LXFL 529) is reported as > 93.8 µM (inactive). The GI50 (HOP-18) was > 100 µM (inactive), the GI50 (DLD-1) was > 46.1 µM (inactive) and the GI50 (XF498) was > 100 µM (inactive). For the same compound, the GI50 (RXF 631) was > 100 µM (inactive), the GI50 (DMS-273) was 17.8 µM (inactive) and the GI50 (KM-20L2) was > 100 µM (inactive).
For `COc1ccc(-c2cc(Cc3cccs3)c(=O)[nH]n2)cc1`, the GI50 (DMS-114) was 74.6 µM (inactive), the GI50 (SNB-78) was > 100 µM (inactive) and the GI50 (LXFL 529) was 53.8 µM (inactive). For the same compound, the GI50 (DMS-273) was > 100 µM (inactive) and the GI50 (KM-20L2) was 85.5 µM (inactive).
With `CC1NOC(=O)C1/N=N/c1ccc(Cl)cc1Cl` (configuration not stated) the GI50 (DMS-114) was 24.2 µM (inactive), the GI50 (SNB-78) was 26.3 µM (inactive) and the GI50 (LXFL 529) was 21.9 µM (inactive). The GI50 (HOP-18) was 18.5 µM (inactive), the GI50 (DLD-1) was 33.9 µM (inactive) and the GI50 (XF498) was 23.1 µM (inactive). For the same compound, the GI50 (RXF 631) was 38.2 µM (inactive), the GI50 (DMS-273) was 20.9 µM (inactive) and the GI50 (KM-20L2) was 30.6 µM (inactive).
For `COC(=O)c1c/c(=N\NC(=O)CC(=O)Nc2ccc(C)cc2)c2ccccc2o1`, the GI50 (DMS-114) was > 100 µM (inactive), the GI50 (SNB-78) was > 100 µM (inactive) and the GI50 (LXFL 529) was > 100 µM (inactive). For the same compound, the GI50 (HOP-18) was > 100 µM (inactive), the GI50 (DLD-1) was > 100 µM (inactive) and the GI50 (XF498) was > 100 µM (inactive). The GI50 (DMS-273) was > 100 µM (inactive) and the GI50 (KM-20L2) was > 100 µM (inactive).
`CCOC(=O)C1S/C(=N\c2ccc(Cl)cc2)N=C1C` (configuration not stated) was tested, and the GI50 (DMS-114) was 23.8 µM (inactive), the GI50 (SNB-78) was 29.2 µM (inactive) and the GI50 (LXFL 529) was > 10 µM (inactive). For the same compound, the GI50 (HOP-18) was 23.3 µM (inactive), the GI50 (DLD-1) was 14.1 µM (inactive) and the GI50 (XF498) was 20 µM (inactive). The GI50 (KM-20L2) was 19.2 µM (inactive).
`O=C(CO[N+](=O)[O-])OCC(=O)c1ccccc1` was tested, and the GI50 (LXFL 529) was > 100 µM (inactive), the GI50 (DLD-1) was > 100 µM (inactive) and the GI50 (RXF 631) was > 100 µM (inactive). The GI50 (DMS-273) was > 100 µM (inactive) and the GI50 (KM-20L2) was > 100 µM (inactive).
In the case of `C[C@]12CCC(=O)C=C1CC[C@@H]1[C@@H]2CC[C@]2(C)C(=O)NC(=O)C[C@@H]12`, the GI50 (DMS-114) is reported as > 100 µM (inactive), the GI50 (SNB-78) is reported as > 100 µM (inactive) and the GI50 (LXFL 529) is reported as > 100 µM (inactive). The GI50 (HOP-18) was > 100 µM (inactive), the GI50 (DLD-1) was > 100 µM (inactive) and the GI50 (XF498) was > 100 µM (inactive). For the same compound, the GI50 (RXF 631) was > 100 µM (inactive), the GI50 (DMS-273) was > 100 µM (inactive) and the GI50 (KM-20L2) was > 100 µM (inactive).
In the case of `CCN(CC)CC(C(=O)Nc1c(C)cccc1C)/C(C)=N\NC(=O)C[N+](C)(C)C` (configuration not stated), the GI50 (DMS-114) is reported as > 100 µM (inactive), the GI50 (SNB-78) is reported as > 100 µM (inactive) and the GI50 (LXFL 529) is reported as > 100 µM (inactive). The GI50 (DLD-1) was > 100 µM (inactive), the GI50 (XF498) was > 100 µM (inactive) and the GI50 (DMS-273) was > 100 µM (inactive). The GI50 (KM-20L2) was > 100 µM (inactive).
`CCOc1ccc(NC(=O)/C(Cc2nc3ccccc3nc2O)=N\O)cc1` was tested, and the GI50 (DMS-114) was > 100 µM (inactive), the GI50 (SNB-78) was > 100 µM (inactive) and the GI50 (LXFL 529) was > 100 µM (inactive). For the same compound, the GI50 (DLD-1) was > 100 µM (inactive), the GI50 (DMS-273) was > 100 µM (inactive) and the GI50 (KM-20L2) was > 100 µM (inactive).
For `COC(=O)c1ccc(OCc2ccc3oc(=O)c(-c4ccccc4)nc3c2)cc1`, the GI50 (DMS-114) was > 100 µM (inactive), the GI50 (SNB-78) was > 100 µM (inactive) and the GI50 (HOP-18) was > 100 µM (inactive). The GI50 (DLD-1) was 15.2 µM (inactive), the GI50 (XF498) was 84.3 µM (inactive) and the GI50 (DMS-273) was > 100 µM (inactive).
With `[N-]=[N+]=CC(=O)C1(C(=O)C=[N+]=[N-])CC1` the GI50 (DMS-114) was > 100 µM (inactive), the GI50 (SNB-78) was > 100 µM (inactive) and the GI50 (LXFL 529) was > 100 µM (inactive). For the same compound, the GI50 (HOP-18) was > 100 µM (inactive), the GI50 (XF498) was > 100 µM (inactive) and the GI50 (DMS-273) was > 100 µM (inactive). For the same compound, the GI50 (KM-20L2) was > 100 µM (inactive).
With `CN1CCN(CCNc2ccc(CO)c3sc4ccccc4c(=O)c23)CC1` the GI50 (DMS-114) was 9.57 µM (inactive), the GI50 (LXFL 529) was 9.71 µM (inactive) and the GI50 (DLD-1) was 11.7 µM (inactive). The GI50 (DMS-273) was 3.21 µM (inactive) and the GI50 (KM-20L2) was 4.21 µM (inactive).
In the case of `Cc1ccc(C)c(NC(=O)c2cc(-c3ccc([N+](=O)[O-])cc3)nc(N)n2)c1`, the GI50 (DMS-114) is reported as > 100 µM (inactive), the GI50 (LXFL 529) is reported as > 100 µM (inactive) and the GI50 (HOP-18) is reported as > 100 µM (inactive). For the same compound, the GI50 (DLD-1) was > 100 µM (inactive), the GI50 (XF498) was > 100 µM (inactive) and the GI50 (DMS-273) was > 100 µM (inactive). The GI50 (KM-20L2) was > 100 µM (inactive).
With `O=C(Nc1ccc(Cl)c(Cl)c1)C(=O)Nn1c(S)nc2ccccc2c1=O` the GI50 (DMS-114) was > 100 µM (inactive), the GI50 (SNB-78) was > 100 µM (inactive) and the GI50 (LXFL 529) was > 100 µM (inactive). The GI50 (HOP-18) was > 100 µM (inactive), the GI50 (DLD-1) was > 100 µM (inactive) and the GI50 (XF498) was > 100 µM (inactive). The GI50 (DMS-273) was > 100 µM (inactive) and the GI50 (KM-20L2) was > 100 µM (inactive).
For `C/C(=N\NC(N)=O)C(CN1CCCCC1)C(c1ccccc1)c1c(O)c2ccccc2oc1=O` (configuration not stated), the GI50 (DMS-114) was > 100 µM (inactive), the GI50 (SNB-78) was > 100 µM (inactive) and the GI50 (LXFL 529) was > 100 µM (inactive). For the same compound, the GI50 (HOP-18) was > 100 µM (inactive), the GI50 (DLD-1) was > 100 µM (inactive) and the GI50 (RXF 631) was > 100 µM (inactive). For the same compound, the GI50 (DMS-273) was > 100 µM (inactive) and the GI50 (KM-20L2) was > 100 µM (inactive).
With `CN(C)CCCSc1c2ccccc2nc2cc(NCC(=O)Nc3ccccc3-c3ccccc3NC(=O)CNc3ccc4c(SCCCN(C)C)c5ccccc5nc4c3)ccc12` the GI50 (DMS-114) was > 100 µM (inactive), the GI50 (SNB-78) was > 100 µM (inactive) and the GI50 (LXFL 529) was > 100 µM (inactive). The GI50 (HOP-18) was > 100 µM (inactive), the GI50 (DLD-1) was > 100 µM (inactive) and the GI50 (XF498) was 71.8 µM (inactive). For the same compound, the GI50 (DMS-273) was > 100 µM (inactive) and the GI50 (KM-20L2) was > 100 µM (inactive).
In the case of `Cn1c(=O)c2[nH]cnc2n(CC(N)=O)c1=O`, the GI50 (DMS-114) is reported as > 100 µM (inactive), the GI50 (SNB-78) is reported as > 100 µM (inactive) and the GI50 (LXFL 529) is reported as > 100 µM (inactive). The GI50 (DLD-1) was > 100 µM (inactive), the GI50 (XF498) was > 100 µM (inactive) and the GI50 (DMS-273) was > 100 µM (inactive).
`Clc1ccc(-n2nnc(C3=NCCCN3)c2-c2ccccc2)cc1` was tested, and the GI50 (DMS-114) was > 100 µM (inactive), the GI50 (SNB-78) was > 100 µM (inactive) and the GI50 (LXFL 529) was > 100 µM (inactive). For the same compound, the GI50 (HOP-18) was > 100 µM (inactive), the GI50 (DLD-1) was > 100 µM (inactive) and the GI50 (XF498) was > 100 µM (inactive). For the same compound, the GI50 (DMS-273) was > 100 µM (inactive) and the GI50 (KM-20L2) was > 100 µM (inactive).
For `O=c1n(CC2CO2)c(=O)n(CC2CO2)c(=O)n1CC1CO1` (configuration not stated) [TEROXIRONE], the GI50 (DMS-114) was 11.4 µM (inactive), the GI50 (SNB-78) was 110 µM (inactive) and the GI50 (HOP-18) was 91.8 µM (inactive). The GI50 (DLD-1) was 62.1 µM (inactive), the GI50 (DMS-273) was 1.16 µM (inactive) and the GI50 (KM-20L2) was 68.5 µM (inactive).
